Reference: patent US7851474B2, “Dipiperazinyl ketones and related analogues” (Neurogen Corporation, priority 2005, dated 2010)

target: T1, chimeric human H3 receptor (Homo sapiens, UniProt Q9Y5N1, E19D); assay: Chimeric human H3 receptor GTP binding assay (agonist-stimulated GTP-gamma35S binding, Example 7); assay type: biochemical; conditions: assay of Example 7; symbol * in column headed Ki of Table II; read-out: Ki
T1 construct: made in house; host or cells: Sf9 insect cells (baculovirus infection); P2 membrane preparation
T1 sequence (Q9Y5N1 with tags, fused parts or gaps E19D): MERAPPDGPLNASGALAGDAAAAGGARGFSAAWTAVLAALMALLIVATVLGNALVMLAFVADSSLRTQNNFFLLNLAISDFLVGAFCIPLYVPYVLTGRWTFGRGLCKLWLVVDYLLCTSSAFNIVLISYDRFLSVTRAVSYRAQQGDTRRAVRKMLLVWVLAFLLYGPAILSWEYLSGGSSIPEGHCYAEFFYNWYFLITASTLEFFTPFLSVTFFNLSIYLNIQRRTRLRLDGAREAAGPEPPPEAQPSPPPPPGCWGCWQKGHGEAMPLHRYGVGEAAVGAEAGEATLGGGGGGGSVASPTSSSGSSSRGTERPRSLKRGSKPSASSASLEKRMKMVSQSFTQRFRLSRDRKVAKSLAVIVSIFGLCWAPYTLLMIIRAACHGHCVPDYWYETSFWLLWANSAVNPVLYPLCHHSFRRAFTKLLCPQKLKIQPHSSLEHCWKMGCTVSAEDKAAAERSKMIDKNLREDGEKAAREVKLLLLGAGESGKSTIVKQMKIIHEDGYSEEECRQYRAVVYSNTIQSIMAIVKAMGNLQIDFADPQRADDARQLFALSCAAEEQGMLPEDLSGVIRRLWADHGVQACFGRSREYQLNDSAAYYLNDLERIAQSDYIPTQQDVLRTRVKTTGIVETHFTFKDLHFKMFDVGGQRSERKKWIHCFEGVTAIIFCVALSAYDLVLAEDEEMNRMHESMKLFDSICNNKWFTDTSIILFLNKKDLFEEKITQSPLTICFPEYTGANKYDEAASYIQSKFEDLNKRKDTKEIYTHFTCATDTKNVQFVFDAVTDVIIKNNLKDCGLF
Description: This Example illustrates a representative assay for evaluating agonist-stimulated GTP-gamma^35S binding (“GTP binding”) activity. […] This agonist-stimulated GTP binding activity can also be used to detect partial agonism mediated by antagonist compounds. A compound analyzed in this assay is referred to herein as a “test compound.”
Four independent baculoviral stocks (one directing the expression of the chimeric human H3 receptor and three directing the expression of each of the three subunits of a heterotrimeric G-protein) are used to infect a culture of Sf9 cells as described above. P2 membranes are prepared as described above, and agonist-stimulated GTP binding on the P2 membranes is assessed using histamine (Sigma Chemical Co., St. Louis, Mo.) as agonist in order to ascertain that the receptor/G-protein-alpha-beta-gamma combination(s) yield a functional response as measured by GTP binding. P2 membranes are resuspended by Dounce homogenization (tight pestle) in GTP binding assay buffer (50 mM Tris pH 7.4, 120 mM NaCl, 5 mM MgCl2, 2 mM EGTA, 1 mg/ml BSA, 0.2 mg/ml bacitracin, 0.02 mg/ml aprotinin, 0.01 mg/ml saponin, 10 μM GDP) and added to assay tubes at a concentration of 35 μg protein/reaction tube. […] In competition experiments, non-radiolabeled test compounds are added to separate reactions at concentrations ranging from 10^−10 M to 10^−6 M along with 1 μM histamine to yield a final volume of 0.20 ml.
Neutral antagonists are antagonists that are substantially free of inherent agonist activity, and include those test compounds that reduce the histamine-stimulated GTP binding activity towards, but not below, baseline levels. In contrast, in the absence of added histamine, inverse agonists reduce the GTP binding activity of the receptor-containing membranes below baseline.
After a 60-min incubation at room temperature, reactions are terminated by vacuum filtration over WHATMAN GF/C filters (pre-soaked in wash buffer, 0.1% BSA) followed by washing with ice-cold wash buffer (50 mM Tris pH 7.4, 120 mM NaCl). The amount of receptor-bound (and thereby membrane-bound) GTP-gamma^35S is determined by measuring the filter-bound radioactivity, preferably by liquid scintillation spectrometry of the washed filters. […] Data is expressed as percent above basal (baseline). The results of GTP binding experiments are analyzed using SIGMAPLOT software (SPSS Inc., Chicago, Ill.).
IC50 values are calculated by non-linear regression analysis of dose-response curves using Kaleidograph (Synergy Software, Reading, Pa.).

Ki, < 1000 nM:
CC(=O)c1ccc(N2CCN(CC(=O)N3CCN(C4CCC4)CC3)[C@@H](C)C2)cc1 [Compound 307, 1-(4-{4-[2-(4-cyclobutylpiperazin-1-yl)-2-oxoethyl]-3-methylpiperazin-1-yl}phenyl)ethanone]
CC(=O)c1cccc(-c2ccc(N3CCN(CC(=O)N4CCN(C5CCC5)CC4)CC3)cc2)c1 [Compound 308, 1-(4′-{4-[2-(4-cyclobutylpiperazin-1-yl)-2-oxoethyl]piperazin-1-yl}biphenyl-3-yl)ethanone]
CC(=O)c1ccc(-c2ccc(N3CCN(CC(=O)N4CCN(C5CCC5)CC4)CC3)cc2)cc1 [Compound 309, 1-(4′-{4-[2-(4-cyclobutylpiperazin-1-yl)-2-oxoethyl]piperazin-1-yl}biphenyl-4-yl)ethanone]
CC(=O)c1ccc(N2CCN(CC(=O)N3CCN(C4CCC4)CC3)CC2)c2ccccc12 [Compound 310, 1-(4-{4-[2-(4-cyclobutylpiperazin-1-yl)-2-oxoethyl]piperazin-1-yl}-1-naphthyl)ethanone]
CC(=O)c1ccc(N2CCN(CC(=O)N3CCN(C4CCC4)CC3)CC2)c(F)c1 [Compound 311, 1-(4-{4-[2-(4-cyclobutylpiperazin-1-yl)-2-oxoethyl]piperazin-1-yl}-3-fluorophenyl)ethanone]
CCC(=O)c1ccc(N2CCN(CC(=O)N3CCN(C4CCC4)CC3)CC2)cc1 [Compound 312, 1-(4-{4-[2-(4-cyclobutylpiperazin-1-yl)-2-oxoethyl]piperazin-1-yl}phenyl)propan-1-one]
CC(C)C(=O)c1ccc(N2CCN(CC(=O)N3CCN(C4CCC4)CC3)CC2)cc1 [Compound 313, 1-(4-{4-[2-(4-cyclobutylpiperazin-1-yl)-2-oxoethyl]piperazin-1-yl}phenyl)-2-methylpropan-1-one]
CC(C)(C)C(=O)c1ccc(N2CCN(CC(=O)N3CCN(C4CCC4)CC3)CC2)cc1 [Compound 314, 1-(4-{4-[2-(4-cyclobutylpiperazin-1-yl)-2-oxoethyl]piperazin-1-yl}phenyl)-2,2-dimethylpropan-1-one]
CC(=O)c1ccc(N2CCN(CC(=O)N3CCN(C4CCC4)CC3)CC2)cc1 [Compound 315, 1-(4-{4-[2-(4-cyclobutylpiperazin-1-yl)-2-oxoethyl]piperazin-1-yl}phenyl)ethanone]
O=C(CN1CCN(c2ccc(C(=O)N3CCCCCC3)cc2)CC1)N1CCN(C2CCC2)CC1 [Compound 317, 1-(4-{4-[2-(4-cyclobutylpiperazin-1-yl)-2-oxoethyl]piperazin-1-yl}benzoyl)azepane]
COc1cc(N2CCN(CC(=O)N3CCN(C4CCC4)CC3)CC2)ccc1C(C)=O [Compound 318, 1-(4-{4-[2-(4-cyclobutylpiperazin-1-yl)-2-oxoethyl]piperazin-1-yl}-2-methoxyphenyl)ethanone]
COc1cc(C(C)=O)ccc1N1CCN(CC(=O)N2CCN(C3CCC3)CC2)CC1 [Compound 319, 1-(4-{4-[2-(4-cyclobutylpiperazin-1-yl)-2-oxoethyl]piperazin-1-yl}-3-methoxyphenyl)ethanone]
O=C(CN1CCN(c2ccc(N3CCCC3=O)cc2)CC1)N1CCN(C2CCC2)CC1 [Compound 320, 1-(4-{4-[2-(4-cyclobutylpiperazin-1-yl)-2-oxoethyl]piperazin-1-yl}phenyl)pyrrolidin-2-one]
CC(=O)c1ccc(N2CCN(CC(=O)N3CCN(C4CCCCC4)CC3)CC2)cc1 [Compound 321, 1-(4-{4-[2-(4-cyclohexylpiperazin-1-yl)-2-oxoethyl]piperazin-1-yl}phenyl)ethanone]
CC(=O)c1ccc(N2CCC(C(C)(C)C(=O)N3CCN(C4CCCC4)CC3)CC2)cc1 [Compound 322, 1-(4-{4-[2-(4-cyclopentylpiperazin-1-yl)-1,1-dimethyl-2-oxoethyl]piperidin-1-yl}phenyl)ethanone]
CC(=O)c1ccc(N2CCN(C(C)C(=O)N3CCN(C4CCCC4)CC3)CC2)cc1 (stereo not drawn) [Compound 323, 1-(4-{4-[2-(4-cyclopentylpiperazin-1-yl)-1-methyl-2-oxoethyl]piperazin-1-yl}phenyl)ethanone]
CCC(=O)c1ccc(N2CCN(CC(=O)N3CCN(C4CCCC4)CC3)CC2)cc1 [Compound 324, 1-(4-{4-[2-(4-cyclopentylpiperazin-1-yl)-2-oxoethyl]piperazin-1-yl}phenyl)propan-1-one]
CC(C)C(=O)c1ccc(N2CCN(CC(=O)N3CCN(C4CCCC4)CC3)CC2)cc1 [Compound 325, 1-(4-{4-[2-(4-cyclopentylpiperazin-1-yl)-2-oxoethyl]piperazin-1-yl}phenyl)-2-methylpropan-1-one]
CC(C)(C)C(=O)c1ccc(N2CCN(CC(=O)N3CCN(C4CCCC4)CC3)CC2)cc1 [Compound 326, 1-(4-{4-[2-(4-cyclopentylpiperazin-1-yl)-2-oxoethyl]piperazin-1-yl}phenyl)-2,2-dimethylpropan-1-one]
CC(=O)c1ccc(N2CCN(CC(=O)N3CCN(C4CCCC4)CC3)CC2)cc1 [Compound 327, 1-(4-{4-[2-(4-cyclopentylpiperazin-1-yl)-2-oxoethyl]piperazin-1-yl}phenyl)ethanone]
CC(=O)c1ccc(N2CCN(CC(=O)N3CCN(CC(C)C)CC3)CC2)cc1 [Compound 328, 1-(4-{4-[2-(4-isobutylpiperazin-1-yl)-2-oxoethyl]piperazin-1-yl}phenyl)ethanone]
CC(=O)c1ccc(N2CCN(CC(=O)N3CCN(C(C)C)CC3)CC2)cc1 [Compound 329, 1-(4-{4-[2-(4-isopropylpiperazin-1-yl)-2-oxoethyl]piperazin-1-yl}phenyl)ethanone]
CCC(C)N1CCN(C(=O)CN2CCN(c3ccc(C(C)=O)cc3)CC2)CC1 (stereo not drawn) [Compound 330, 1-(4-{4-[2-(4-sec-butylpiperazin-1-yl)-2-oxoethyl]piperazin-1-yl}phenyl)ethanone]
CC(O)c1ccc(N2CC3CC2CN3CC(=O)N2CCN(C3CCC3)CC2)cc1 (stereo not drawn) [Compound 331, 1-(4-{5-[2-(4-cyclobutylpiperazin-1-yl)-2-oxoethyl]-2,5-diazabicyclo[2.2.1]hept-2-yl}phenyl)ethanol]
CC(=O)c1ccc(N2C(=O)C3(CCN(CC(=O)N4CCN(C5CCC5)CC4)CC3)c3ccccc32)cc1 [Compound 332, 1-(4-acetylphenyl)-1′-[2-(4-cyclobutylpiperazin-1-yl)-2-oxoethyl]spiro[indole-3,4′-piperidin]-2(1H)-one]
CC(=O)c1ccc(N2CCN(CC(=O)N3CCN(C4CCC4)CC3)CC2=O)cc1 [Compound 333, 1-(4-acetylphenyl)-4-[2-(4-cyclobutylpiperazin-1-yl)-2-oxoethyl]piperazin-2-one]
COc1cc(N2CCN(CC(=O)N3CCN(C4CCCC4)CC3)CC2)ccc1Br [Compound 334, 1-(4-bromo-3-methoxyphenyl)-4-[2-(4-cyclopentylpiperazin-1-yl)-2-oxoethyl]piperazine]
CCN1CCN(C(=O)CN2CCN(c3ccc(Br)c(OC)c3)CC2)CC1 [Compound 335, 1-(4-bromo-3-methoxyphenyl)-4-[2-(4-ethylpiperazin-1-yl)-2-oxoethyl]piperazine]
COc1cc(N2CCN(CC(=O)N3CCN(C(C)C)CC3)CC2)ccc1Br [Compound 336, 1-(4-bromo-3-methoxyphenyl)-4-[2-(4-isopropylpiperazin-1-yl)-2-oxoethyl]piperazine]
CCC(C)N1CCN(C(=O)CN2CCN(c3ccc(Br)c(OC)c3)CC2)CC1 (stereo not drawn) [Compound 337, 1-(4-bromo-3-methoxyphenyl)-4-[2-(4-sec-butylpiperazin-1-yl)-2-oxoethyl]piperazine]
O=C(CN1CCN(c2ccc(Br)cc2)CC1)N1CCN(C2CCCCC2)CC1 [Compound 338, 1-(4-bromophenyl)-4-[2-(4-cyclohexylpiperazin-1-yl)-2-oxoethyl]piperazine]
CC(C)N1CCN(C(=O)CN2CCN(c3ccc(Br)cc3)CC2)CC1 [Compound 339, 1-(4-bromophenyl)-4-[2-(4-isopropylpiperazin-1-yl)-2-oxoethyl]piperazine]
O=C(CN1CCN(c2ccc(-c3ccc(Cl)cc3F)cc2)CC1)N1CCN(C2CCC2)CC1 [Compound 341, 1-(4′-chloro-2′-fluorobiphenyl-4-yl)-4-[2-(4-cyclobutylpiperazin-1-yl)-2-oxoethyl]piperazine]
